The values below come from patent publication US5164188A, “Biodegradable ocular implants” (Visionex, Inc., priority 1989, dated 1992).

The structures appear in SMILES notation. Where two headings read alike, the source gives them in different places.

A short description of data set [1]: in vivo. As to conditions: rabbit.
The conditions of data set [2]: rabbit, in vivo.
For data set [3] the following is noted: rabbit, in vivo. The source holds these as a separate data set.
Data set [4] can be described thus: in vivo. As to conditions: rabbit. The source holds these as a separate data set.
The nature of data set [5]: MTX level in eye, plaque in pars plana (EMIT). The data set is classed as in vivo, rabbit. As to conditions: for Drug level, LE PC: left eye, posterior chamber, plaque in one eye only.
Data set [6] can be described thus: MTX level in eye, microcapsules in pars plana (EMIT). The data set is classed as in vivo, rabbit. As to conditions: for Drug level, LE PC: left eye, posterior chamber, microcapsule in one eye only.
The test system of another data set is VX2 adenocarcinoma. As to conditions: in vitro; cited from earlier work.

Compound `C[C@]12CCC(=O)C=C1CC[C@@H]1[C@@H]2[C@@H](O)C[C@@]2(C)[C@H]1CC[C@]2(O)C(=O)CO` [Hydrocortisone, hydrocortisone] gave a concentration at 720 h in “in vivo [1]” of 1300 ng/mL. For the same compound, the concentration at 1440 h in “in vivo [1]” was found to be 1900 ng/mL. For the same compound, the concentration at 2160 h in the data set “in vivo [1]” turned out to be 2300 ng/mL. Further, the “Drug level, RE PC” value in data set [2] (10080 min), in data set [2] (20160 min), in data set [2] (30240 min), in data set [2] (40320 min), in data set [2] (50400 min) and in data set [2] (60480 min) was 0 ng/mL in each case. Besides, the “Drug level, RE PC” value in data set [3] (43200 min), in data set [3] (86400 min) and in data set [3] (129600 min) was 0 ng/mL in each case. In addition, in “in vivo [4]”, the concentration at 168 h came out at 1300 ng/mL. Further, the concentration at 336 h in “in vivo [4]” turned out to be 2000 ng/mL. The concentration at 504 h in the data set “in vivo [4]” was determined as 2400 ng/mL. In the data set “in vivo [4]”, the concentration at 672 h was found to be 1100 ng/mL. The concentration at 840 h in “in vivo [4]” came to 900 ng/mL. In addition, in “in vivo [4]”, the concentration at 1008 h was 2000 ng/mL.

Regarding `CN(Cc1cnc2nc(N)nc(N)c2n1)c1ccc(C(=O)N[C@@H](CCC(=O)O)C(=O)O)cc1` [MTX, methotrexate], the “Drug level, LE PC” value in data set [5] (1 mo), in data set [5] (2 mos), in data set [5] (3 mos), in data set [6] (1 wk), in data set [6] (2 wks) and in data set [6] (3 wks) was 0 ng/mL in each case. Also, the “Drug level, LE PC” value in data set [6] (4 wks), in data set [6] (5 wks) and in data set [6] (6 wks) was 0 ng/mL throughout. The concentration at 720 h in data set [5] (rabbit, posterior chamber of eye, right eye, 1 mo, plaque, read-out: Drug level, RE PC) came out at 1500 ng/mL. Further, the concentration at 1440 h in data set [5] (rabbit, posterior chamber of eye, right eye, 2 mos, plaque, read-out: Drug level, RE PC) was found to be 4000 ng/mL. In addition, in data set [5] (rabbit, posterior chamber of eye, right eye, 3 mos, plaque, read-out: Drug level, RE PC), the concentration at 2160 h came out at 2000 ng/mL. The concentration at 168 h in data set [6] (rabbit, posterior chamber of eye, right eye, 1 wk, microcapsule, read-out: Drug level, RE PC) amounted to 800 ng/mL. Further, the concentration at 336 h in data set [6] (rabbit, posterior chamber of eye, right eye, 2 wks, microcapsule, read-out: Drug level, RE PC) is 1200 ng/mL. The concentration at 504 h in data set [6] (rabbit, posterior chamber of eye, right eye, 3 wks, microcapsule, read-out: Drug level, RE PC) was 1400 ng/mL. For the same compound, the concentration at 672 h in data set [6] (rabbit, posterior chamber of eye, right eye, 4 wks, microcapsule, read-out: Drug level, RE PC) stood at 700 ng/mL. Besides, the concentration at 840 h in data set [6] (rabbit, posterior chamber of eye, right eye, 5 wks, microcapsule, read-out: Drug level, RE PC) is 1000 ng/mL. For the same compound, in data set [6] (rabbit, posterior chamber of eye, right eye, 6 wks, microcapsule, read-out: Drug level, RE PC), the concentration at 1008 h was found to be 900 ng/mL.

As a reminder, the IC50 is the midpoint of a concentration-inhibition curve. `CC[C@]1(O)C[C@H]2CN(CCc3c([nH]c4ccccc34)[C@@](C(=O)OC)(c3cc4c(cc3OC)N(C=O)[C@H]3[C@@](O)(C(=O)OC)[C@H](OC(C)=O)[C@]5(CC)C=CCN6CC[C@]43[C@@H]65)C2)C1` [Vincristine]: in the data set on VX2 adenocarcinoma, the IC50 was 2 to 3 ng/mL.
